Assay results as given in patent US11077090B2, “Compounds and compositions and uses thereof” (Sunovion Pharmaceuticals Inc., priority 2016, dated 2021).

Test system: compound-treated mice
Assay: Neuropharmacological assay (SmartCube): behavioral activity signature and minimal effective dose
Assay type: in vivo
Settings: for minimal effective dose: Mus musculus, ip, MED = dose having 50% or more total activity, read-out: Potency: minimal effective dose (MED), binned; for AD: ADHD (probability of activity signature) / AG: analgesic (probability of activity signature) / AX: anxiolytic (probability of activity signature) / CE: cognitive enhancer (probability of activity signature) / DP: anti-depressant (probability of activity signature) / MS: mood stabilizer (probability of activity signature) / PS: anti-psychotic (probability of activity signature) / SD: sedative hypnotic (probability of activity signature) / UN: uncharacterized CNS activity (probability of activity signature): i.p. 15 min before test, most efficacious dose(s)
Method in brief: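 Mice dosed i.p. 15 min before test, compound in N-methyl-2-pyrrolidone/PEG/propylene glycol, 3 doses; video-captured behavior matched to reference-drug signatures, giving per-class probabilities at most efficacious dose. MED from doses typically 0.3–30 mpk, defined as lowest dose with ≥50% total activity.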

Compound	minimal effective dose [mg/kg]	AD: ADHD (probability of activity signature)	AG: analgesic (probability of activity signature)	AX: anxiolytic (probability of activity signature)	CE: cognitive enhancer (probability of activity signature)	DP: anti-depressant (probability of activity signature)	MS: mood stabilizer (probability of activity signature)	PS: anti-psychotic (probability of activity signature)	SD: sedative hypnotic (probability of activity signature)	UN: uncharacterized CNS activity (probability of activity signature)
C#CCN[C@H]1c2ccccc2CO[C@@H]1C.Cl [Example 270]	< 3	++ (5% ≤ ++ <25%)	+ (LOQ ≤ + <5%)	++ (5% ≤ ++ <25%)	+ (LOQ ≤ + <5%)	++ (5% ≤ ++ <25%)	++++ (50% ≤ ++++)	+ (LOQ ≤ + <5%)	++ (5% ≤ ++ <25%)	++ (5% ≤ ++ <25%)
C#CCN[C@H]1c2ccccc2CO[C@H]1C.Cl [Example 271]	3 to 10	++ (5% ≤ ++ <25%)	+ (LOQ ≤ + <5%)	++ (5% ≤ ++ <25%)	+ (LOQ ≤ + <5%)	++ (5% ≤ ++ <25%)	+++ (25% ≤ +++ <50%)	+ (LOQ ≤ + <5%)	++ (5% ≤ ++ <25%)	++ (5% ≤ ++ <25%)
CCCN[C@H]1c2ccccc2CO[C@H]1C.Cl [Example 272]	3 to 10	+ (LOQ ≤ + <5%)	+ (LOQ ≤ + <5%)	++ (5% ≤ ++ <25%)	+ (LOQ ≤ + <5%)	+ (LOQ ≤ + <5%)	++ (5% ≤ ++ <25%)	++ (5% ≤ ++ <25%)	++ (5% ≤ ++ <25%)	++ (5% ≤ ++ <25%)
CCN(C)C(=O)Oc1ccc2c(c1)C(N)COC2.Cl (stereo not drawn) [Example 277, 4-Aminoisochroman-6-yl ethyl(methyl)carbamate hydrochloride]	> 30	+ (LOQ ≤ + <5%)	+ (LOQ ≤ + <5%)	+ (LOQ ≤ + <5%)	+ (LOQ ≤ + <5%)	+ (LOQ ≤ + <5%)	+ (LOQ ≤ + <5%)	+ (LOQ ≤ + <5%)	+ (LOQ ≤ + <5%)	+ (LOQ ≤ + <5%)
CCN(C)C(=O)Oc1ccc2c(c1)CO[C@@H](C)[C@H]2N.Cl [Example 279]	3 to 10	+ (LOQ ≤ + <5%)	+ (LOQ ≤ + <5%)	+ (LOQ ≤ + <5%)	+ (LOQ ≤ + <5%)	++ (5% ≤ ++ <25%)	+++ (25% ≤ +++ <50%)	++ (5% ≤ ++ <25%)	++ (5% ≤ ++ <25%)	++ (5% ≤ ++ <25%)
CCN(C)C(=O)Oc1ccc2c(c1)CO[C@H](C)[C@H]2N.Cl [Example 280]	3 to 10	+ (LOQ ≤ + <5%)	+ (LOQ ≤ + <5%)	+ (LOQ ≤ + <5%)	++ (5% ≤ ++ <25%)	++ (5% ≤ ++ <25%)	++ (5% ≤ ++ <25%)	+ (LOQ ≤ + <5%)	++ (5% ≤ ++ <25%)	+ (LOQ ≤ + <5%)
CCN(C)C(=O)Oc1ccc2c(c1)[C@H](N)[C@H](C)OC2.Cl [Example 281]	> 30	+ (LOQ ≤ + <5%)	+ (LOQ ≤ + <5%)	+ (LOQ ≤ + <5%)	+ (LOQ ≤ + <5%)	+ (LOQ ≤ + <5%)	+ (LOQ ≤ + <5%)	+ (LOQ ≤ + <5%)	+ (LOQ ≤ + <5%)	+ (LOQ ≤ + <5%)
CCN(C)C(=O)Oc1ccc2c(c1)[C@H](N)[C@@H](C)OC2.Cl [Example 282]	> 30	+ (LOQ ≤ + <5%)	+ (LOQ ≤ + <5%)	+ (LOQ ≤ + <5%)	+ (LOQ ≤ + <5%)	+ (LOQ ≤ + <5%)	+ (LOQ ≤ + <5%)	+ (LOQ ≤ + <5%)	++ (5% ≤ ++ <25%)	+ (LOQ ≤ + <5%)
CCN(C)C(=O)Oc1ccc2c(c1)COCC2N(C)C.Cl (stereo not drawn) [Example 283]	3 to 10	++ (5% ≤ ++ <25%)	+ (LOQ ≤ + <5%)	++ (5% ≤ ++ <25%)	+ (LOQ ≤ + <5%)	++ (5% ≤ ++ <25%)	+++ (25% ≤ +++ <50%)	++ (5% ≤ ++ <25%)	++ (5% ≤ ++ <25%)	++ (5% ≤ ++ <25%)
CCN(C)C(=O)Oc1ccc2c(c1)C(N(C)C)COC2.Cl (stereo not drawn) [Example 284]	10 to 30	+ (LOQ ≤ + <5%)	+ (LOQ ≤ + <5%)	++ (5% ≤ ++ <25%)	+ (LOQ ≤ + <5%)	++ (5% ≤ ++ <25%)	+++ (25% ≤ +++ <50%)	++ (5% ≤ ++ <25%)	++ (5% ≤ ++ <25%)	+ (LOQ ≤ + <5%)
CCN(C)C(=O)Oc1ccc2c(c1)CO[C@@H](C)[C@H]2N(C)C.Cl [Example 285]	3 to 10	++ (5% ≤ ++ <25%)	+ (LOQ ≤ + <5%)	++ (5% ≤ ++ <25%)	+ (LOQ ≤ + <5%)	++ (5% ≤ ++ <25%)	++++ (50% ≤ ++++)	++++ (50% ≤ ++++)	+ (LOQ ≤ + <5%)	++ (5% ≤ ++ <25%)
CCN(C)C(=O)Oc1ccc2c(c1)CO[C@H](C)[C@H]2N(C)C.Cl [Example 286]	10 to 30	+ (LOQ ≤ + <5%)	+ (LOQ ≤ + <5%)	+ (LOQ ≤ + <5%)	+ (LOQ ≤ + <5%)	++ (5% ≤ ++ <25%)	++ (5% ≤ ++ <25%)	+ (LOQ ≤ + <5%)	++ (5% ≤ ++ <25%)	++ (5% ≤ ++ <25%)
